Results taken from PMC9751974 (Frontiers in Microbiology, 2022).
Values after ≈ are worked out from the molar mass of the structure shown. Read-outs that look alike come from different tables or passages of the source. Where a SMILES comes first, the peptide text is derived from it. [ ]: non-standard residue; d: D form.

Assays:
[1] = biological target: pepsin (Sus scrofa, UniProt P00791); assay: Protease stability (MIC after incubation with pepsin); format: in vitro ADME; conditions: pepsin 3,000 U/mg, pH 2.0, 4 h, 37°C; peptide:protease 10:1 w/w (320 and 32 μg/mL); read-out MIC; triplicate
Method: All assays were carried out in triplicate.

[2] = test system: pepsin and trypsin; assay: Protease stability, pepsin and trypsin stated together
Method: The untreated peptides and buffer solution were used as control. […] All assays were carried out in triplicate.

[3] = test system: healthy mouse red blood cells; assay: Hemolysis; conditions: mouse red blood cells 8% v/v, PBS pH 7.4, 37°C, 1 h, OD540, three replicates
Method: Hemolytic activity was estimated by determining hemoglobin released from healthy mouse red blood cells. Blood cells were washed three times in sterile PBS (10 mM, pH 7.4) and centrifuged at 1500 rpm for 5 min at 4°C. […] Afterward, the mixtures were incubated at 37°C for 1 h and centrifuged at 1500 rpm for 5 min. Ultimately, the absorbance of supernatants was measured at 540 nm. PBS and 0.1% Triton X-100 were used as the negative and the positive control, respectively. Hemolysis (%) = [(OD540 nm of the treated sample-OD540 nm of the negative control)/ (OD540 nm of positive control-OD540 nm of negative control)] × 100%.

[4] = test system: RAW264.7 cells and Vero cells; assay: Cytotoxicity, CCK-8 assay, RAW264.7 and Vero stated together; conditions: 128 μg/mL; range over Figures 1D,E (RAW264.7 and Vero)
Method: Cells (2.5 × 10^4 cells/well) were added into 96-well plates and incubated at 37°C in a humidified 5% CO2 environment for 24 h. […] Sterile aqua distillate was used as control. Eventually, 10 μL WST-8 solutions were added into each well. After 4 h of incubation at 37°C, a microplate reader was applied to measure the absorbance of each sample at 460 nm. The following formula was used to calculate cell viability: Cell viability (%) = OD 460 nm of treated sample/OD 460 nm of control × 100%.

[5] = test system: E. coli ATCC25922
Method: The MIC values of peptides against E. coli ATCC25922 were determined by the microtiter broth dilution method. The bacteria were grown to the mid-logarithmic phase and diluted into the Luria-Bertani (LB) broth at 1 × 10^5 CFU/mL. […] Polymyxin and the sterile aqua distillate were tested as control. All assays were performed in triplicate.

[6] = test system: E. coli ATCC25922; assay: Development of resistance by serial passaging (MIC assay); format: cell-based, Escherichia coli; conditions: 11 serial passages of E. coli ATCC25922, inoculum from 1/4 MIC well, 11 days
Method: The development of resistance against E. coli ATCC25922 of these peptides was performed by MIC assay. Mid-log phase of bacteria (1 × 10^5 CFU/mL) (90 μL/well) was added to 10 μL peptides solution (128, 64, 32, 16, 8, 4, 2, 1, 0.5, 0.25 μg/mL). Polymyxin were used as control. After incubation at 37°C for 16–18 h, bacteria form 1/4 MIC well were used to inoculate in fresh culture. The MIC values were continually determined as described above. The serial passaging was repeated for 11 days.

[7] = test system: healthy mouse red blood cells; conditions: cited from earlier work; for hemolysis rate: reported in previous research, ref Zhou et al., 2021
Description: Escherichia coli (E. coli) infection and LPS-induced inflammation are still of severe threat to human health. With the increasing problem of antibiotic resistance, there is a desperate need to develop new approaches to solve the problem.

[8] = test system: murine RAW264.7 macrophage cells; conditions: 128 μg/mL; cell line not given; ref Zhou et al., 2021; cited from earlier work
Method: The toxicity of peptides to mouse eukaryotic cells, macrophagocyte RAW 264.7 and Vero cells was determined.

[9] = ref Zhou et al., 2021; cited from earlier work
Description: As essential components of innate immunity, antimicrobial peptides (AMPs) contribute to the first line of defense against infections. […] However, its ant ...

[10] = test system: murine RAW264.7 macrophage cells
Method: The performance of the Cell Counting Kit-8 (CCK-8) assay was applied to investigate the effect of peptides on the viability of murine RAW264.7 macrophage cells and Vero cells in accordance with the previous method ([Zhou et al., 2021]). Cells (2.5 × 10^4 cells/well) were added into 96-well plates and incubated at 37°C in a humidified 5% CO2 environment for 24 h. Then various concentrations (0.15–20 μg/mL) of peptides were mixed with cells. Sterile aqua distillate was used as control. Eventually, 10 μL WST-8 solutions were added into each well. After 4 h of incubation at 37°C, a microplate reader was applied to measure the absorbance of each sample at 460 nm. The following formula was used to calculate cell viability: Cell viability (%) = OD 460 nm of treated sample/OD 460 nm of control × 100%.

Sequence of pepsin (P00791 60-385): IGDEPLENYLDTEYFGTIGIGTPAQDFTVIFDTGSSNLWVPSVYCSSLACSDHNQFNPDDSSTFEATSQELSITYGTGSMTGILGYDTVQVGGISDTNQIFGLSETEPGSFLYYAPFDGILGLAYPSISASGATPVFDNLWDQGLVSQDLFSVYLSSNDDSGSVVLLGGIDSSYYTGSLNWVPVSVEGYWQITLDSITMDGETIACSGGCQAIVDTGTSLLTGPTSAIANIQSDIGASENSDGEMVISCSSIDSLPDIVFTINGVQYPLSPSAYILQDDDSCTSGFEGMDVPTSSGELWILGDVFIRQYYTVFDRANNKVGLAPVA

CC[C@@H](C)[C@@H](NC(=O)[C@@H](CCCNC(=N)N)NC(=O)[C@H](NC(=O)[C@@H](C)NC(=O)[C@H](NC(=O)[C@H](NC(=O)[C@@H](CC(C)C)NC(=O)[C@@H](CCCNC(=N)N)NC(=O)[C@H](N)C(C)C)[C@H](C)CC)C(C)C)C(C)C)C(=O)N[C@H](Cc1c[nH]c2ccccc12)C(=O)N[C@H](CCCNC(=N)N)C(=O)N[C@H](CCCNC(=N)N)C(N)=O [D1018] (H-[dV][dR][dL][dI][dV][dA][dV][dR][dI][dW][dR][dR]-NH2)
MIC against E. coli ATCC25922 after exposure to pepsin [1]: 4 µg/mL (≈ 2.6 µM)
increase of resistance against tested proteases ([2]; abstract, D-peptides compared with L-parents): 2–4 times
hemolysis rate ([3]; 32 μg/mL): 0.542%
hemolysis rate ([3]; 64 μg/mL): 1.724%
hemolysis rate ([3]; 128 μg/mL): 2.316%
survival rate [4]: 81.7–87.6%

Polymyxin [reference compound]
MIC ([5]; E. coli ATCC25922, LB broth, 1 × 10^5 CFU/mL, 37°C, 16–24 h, triplicate): 1.56 µg/mL
change of MIC after serial passages [6]: no change in MIC

CC[C@H](C)[C@H](NC(=O)[C@H](CCCNC(=N)N)NC(=O)[C@@H](NC(=O)[C@H](C)NC(=O)[C@@H](NC(=O)[C@@H](NC(=O)[C@H](CC(C)C)NC(=O)[C@H](CCCNC(=N)N)NC(=O)[C@@H](N)C(C)C)[C@@H](C)CC)C(C)C)C(C)C)C(=O)N[C@@H](Cc1c[nH]c2ccccc12)C(=O)N[C@@H](CCCNC(=N)N)C(=O)N[C@@H](CCCNC(=N)N)C(N)=O [IDR-1018] (H-VRLIVAVRIWRR-NH2)
decline of anti-E. coli ability after exposure to pepsin and trypsin ([2]; 4 h, 37°C, pepsin pH 2.0 and trypsin pH 8.0, 10:1 w/w, read-out MIC vs untreated peptide): 2–4 times
hemolysis rate ([7]; 32 μg/mL): 0.386%
hemolysis rate ([7]; 64 μg/mL): 2.136%
hemolysis rate ([7]; 128 μg/mL): 2.651%
survival rate [8]: 95.9%
decrease of activity on exposure to inappropriate temperature, pH, or protease environment [9]: 2–16 times

CC(C)C[C@@H](NC(=O)[C@@H](CCCNC(=N)N)NC(=O)[C@H](N)C(C)C)C(=O)N[C@H](CCCNC(=N)N)C(=O)N[C@H](Cc1c[nH]c2ccccc12)C(=O)N[C@H](Cc1c[nH]c2ccccc12)C(=O)N[C@H](CCCNC(=N)N)C(=O)N[C@H](CCCNC(=N)N)C(=O)N[C@H](CCCNC(=N)N)C(=O)N[C@H](Cc1c[nH]c2ccccc12)C(=O)N[C@H](CCCNC(=N)N)C(=O)N[C@H](CCCNC(=N)N)C(N)=O [D1018M] (H-[dV][dR][dL][dR][dW][dW][dR][dR][dR][dW][dR][dR]-NH2)
MIC ([5]; ATCC25922): 4 µg/mL (≈ 2.13 µM)
decline of anti-E. coli ability after exposure to pepsin and trypsin [2]: 4 times
increase of resistance against tested proteases [2]: 2–4 times
safe concentration of murine macrophage cells [10]: 4 times of MIC

CC(C)C[C@H](NC(=O)[C@H](CCCNC(=N)N)NC(=O)[C@@H](N)C(C)C)C(=O)N[C@@H](CCCNC(=N)N)C(=O)N[C@@H](Cc1c[nH]c2ccccc12)C(=O)N[C@@H](Cc1c[nH]c2ccccc12)C(=O)N[C@@H](CCCNC(=N)N)C(=O)N[C@@H](CCCNC(=N)N)C(=O)N[C@@H](CCCNC(=N)N)C(=O)N[C@@H](Cc1c[nH]c2ccccc12)C(=O)N[C@@H](CCCNC(=N)N)C(=O)N[C@@H](CCCNC(=N)N)C(N)=O [1018M] (H-VRLRWWRRRWRR-NH2)
MIC ([5]; ATCC25922): 8 µg/mL (≈ 4.25 µM)
decline of anti-E. coli ability after exposure to pepsin and trypsin [2]: 4 times
hemolysis [7]: 0%
